Source: publication PMC9501232, “Novel 4-Azapregnene Derivatives as Potential Anticancer Agents: Synthesis, Antiproliferative Activity and Molecular Docking Studies” (Molecules, 2022)

Tests used:
T47-D cells [1] = assay: Cell nuclear morphology and distribution analysis with ImageJ; assay type: cell-based, human
Source text: The nuclear measurements were achieved by converting 16-bit photomicrographs of Hoechst 3342-stained nuclei, in different conditions, into 8-bit images and then these images were autothresholded to binary photos using the default method “Make binary” function of ImageJ v 1.49. Cell nuclei that are touching were separated and fragments were discarded based on the area through the “Analyze Particle” function. This function also provides several information pretended as nuclear area, circumference and form factor [33]. In addition, the “Nearest Neighbor Distance” was determined. This function allows measuring the distance between each cell nucleus and the nearest ones.

LNCaP cells = assay: MTT cell proliferation assay, LNCaP; assay type: cell-based, human; details: 72 h
Protocol: (§1) Cell lines, namely LNCaP, PC-3, T47-D and NHDF were obtained from American Type Culture Collection (ATCC; Manassas, VA, USA) and cultured in 75 cm^2 culture flasks at 37 °C in a humidified air incubator with 5% CO2. LNCaP, PC-3 and T47-D cells, which were used in passages 20th to 27th, 25th to 29th and 10th to 15th, respectively, were cultured in RPMI 1640 medium (Sigma-Aldrich, Inc., St. Louis, MO, USA) with 10% fetal bovine serum (FBS; Sigma-Aldrich, Inc. St. Louis, MO, USA) and 1% of the antibiotic mixture of 10,000 IU/mL penicillin G and […] of streptomycin (Sp, Sigma-Aldrich, Inc. St. Louis, MO, USA). Finally, NHDF cells (Normal Human Dermal Fibroblasts) were cultured in RPMI 1640 medium supplemented with 10% FBS, 2 mM L-glutamine, 10 mM HEPES, 1 mM sodium pyruvate and 1% of an antibiotic/antimycotic mixture (10,000 U/mL penicillin G, 100 mg/mL streptomycin and 25 µg/mL amphotericin B) (Ab; Sigma-Aldrich, Inc. St. Louis, MO, USA), and these cells were used in passages 10 to 12. For all cell types, the medium was renewed every 2–3 days until cells reach nearly the confluence state. Then, they were detached gently by trypsinization (trypsin-EDTA solution: 0.125 g/L of trypsin and 0.02 g/L of EDTA).
(§2) All the stock solutions were prepared by dissolving compounds in dimethyl sulfoxide (DMSO; Sigma-Aldrich, Inc., St. Louis, MO, USA) at 10 mM and stored at 4 °C. From these solutions, the several diluted compounds solutions in different concentrations were freshly prepared in a complete culture medium before each experiment.
(§3) As previously referred, cells were trypsinized after reaching a near confluence state and counted by the trypan blue exclusion assay in a Neubauer chamber. Then, 100 µL of cell suspension/well with an initial density of 2 × 10^4 cells/mL were seeded in 96-well culture plates (Nunc, Apogent, Denmark) and left to adhere for 48 h. After cells adherence, the medium was replaced by the distinct solutions of the compounds in the study (30 µM for preliminary studies and 0.01, 0.1, 1, 10, 50 and 100 µM for concentration–response studies) in the appropriate medium for approximately 72 h. 5-FU and finasteride were used as positive controls and untreated cells were used as the negative control. Each experiment was performed in quadruplicate and independently performed at least two times. The in vitro antiproliferative effects were evaluated by the MTT assay (Sigma-Aldrich, Inc. St. Louis, USA). After the incubation period, the medium was removed and 100 µL of phosphate buffer saline (NaCl 137 mM, KCl 2.7 mM, Na2HPO4 10 mM and KH2PO4 1.8 mM in deionized water and pH adjusted to 7.4) were used to wash the cells. Then, 100 µL of the MTT solution (5 mg/mL) was prepared in the appropriate serum-free medium and was added to each well, followed by incubation for 4 h at 37 °C. Hereafter, the MTT containing medium was removed and the formazan crystals were dissolved in DMSO. Then the absorbance was measured at 570 nm using a microplate spectrophotometer BIO-RAD xMarkTM. Cell viability values were expressed as percentages relative to the absorbance determined in the cells used as negative controls.
(§4) The data are expressed as a mean ± standard deviation (SD) and differences between groups were considered statistically significant when p < 0.05. The IC50 values were determined through sigmoidal fitting analysis with variable slope and considering a 95% confidence level. All data shown are representative of at least two independent experiments.

T47-D cells [2] = assay: MTT cell proliferation assay, T47-D; assay type: cell-based, human; details: 72 h
Protocol: as §1, §2, §3, §4

PC-3 cells = assay: MTT cell proliferation assay, PC-3; assay type: cell-based, human
Protocol: as §1, §2, §3, §4

[3] = system: NHDF cells (Normal Human Dermal Fibroblasts); assay: MTT cell proliferation assay, NHDF; assay type: cell-based; details: 72 h
Protocol: as §1, §2, §3, §4

T47-D cells [4] = assay: Fluorescence microscopy, PI/Hoechst 3342 staining; assay type: cell-based, human; details: 20 µM, 24, 48 and 72 h, vs negative and positive controls
Protocol: To access the effects of the compound 3g in T47-D cells, fluorescence microscopy assays with Hoechst 3342 and PI staining were performed. T47-D cells were seeded at 2 × 10^4 cells/mL in a 24-well culture plate containing circular coverslips of 10 mm diameter, in a complete culture medium. After 48 h, cells were incubated during 24, 48 and 72 h, with 5-FU at 20 µM, as the positive control, steroid 3g at 20 µM, and untreated cells were used as a negative control. Then, cells were incubated with 20 µL/per well of a solution of PI in PBS at 1 mg/mL for 25 min at 37 °C. The medium was removed, and the cells were fixed with formalin 4% for 15 min at room temperature. Cells were washed three times with PBS and then they were incubated with 30 µL/per coverslip of Hoechst 33,342 (1:500) for 10 min. After incubation, cells were washed three times with PBS. Coverslips were mounted on a drop of permanent mounting medium (Dako) on a microscope slide and visualized in a Zeiss Axio Imager A1 microscope with the 40 × objective. The PI/Hoechst 3342 ratio was calculated by dividing PI-positive cells by Hoechst 3342-positive cells and, then the values were normalized.

IC50 (LNCaP cells; Homo sapiens, MTT): 10.2 µM
IC50 (PC-3 cells; Homo sapiens, PC-3, 72 h, MTT): 3.64 µM
SMILES: C[C@]12CC[C@H]3[C@@H](CC=C4NC(=O)CC[C@@]43C)[C@@H]1CC[C@@H]2C(=O)/C=C/c1cccnc1 [Compound 3g, 21E-[(Pyridin-3-yl)methylidene]-4-azapregn-5-ene-3,20-dione]
Nuclear area (T47-D cells [1]; 20 µM, 24, 48 and 72 h, vs control): significant decrease in the nuclear area
Nearest neighbor distance (NND) of cell nuclei (T47-D cells [1]; 20 µM, 48 and 72 h): different distances
MTT screening, cell proliferation (LNCaP cells; 30 µM, average ± SD): 0.7 ± 1.0 percentage of negative control
MTT screening, cell proliferation (T47-D cells [2]; 30 µM, average ± SD): 1.0 ± 0.4 percentage of negative control
IC50 (T47-D cells [2]; Homo sapiens, T47D, MTT): 1.33 µM
MTT screening, cell proliferation (PC-3 cells; PC-3, 30 µM, 72 h, average ± SD): 0.1 ± 0.1 percentage of negative control
MTT screening, cell proliferation ([3]; 30 µM, average ± SD): 23.8 ± 3.2 percentage of negative control
IC50 ([3]; Homo sapiens, MTT): 3.09 µM
Ratio of PI/Hoechst 3342 staining (T47-D cells [4]): higher ratio of PI/Hoechst 3342 staining
